Experimental data taken from patent US6518276B2, “7-oxo-pyridopyrimidines (II)” (Syntex (U.S.A.) LLC, priority 2000, dated 2003).
pIC50: −log10 of the molar value. Counter-ions that a name gives are not always drawn.

Columns and labels:
p38 MAP kinase = molecular target: T1, p38 MAP kinase (Homo sapiens, UniProt Q16539); test: in vitro inhibition of p-38 (MAP) kinase: transfer of γ-phosphate from γ-33P-ATP to Myelin Basic Protein; type: biochemical; conditions: phosphorylated recombinant p38 MAP kinase, MBP substrate, 30° C., read-out: IC50 (p-38 inhibitory activity, concentration causing 50% inhibition of the p-38 enzyme)
T1 construct: made in house; host or cells: E. coli (co-expressed with SEK-1 and MEKK to obtain the phosphorylated form)
Description: This example illustrate an assay protocol for determining in vitro inhibition of p-38 (MAP) Kinase.
The p-38 MAP kinase inhibitory activity of compounds of this invention in vitro was determined by measuring the transfer of the γ-phosphate from γ-^33P-ATP by p-38 kinase to Myelin Basic Protein (MBP), using the a minor modification of the method described in Ahn, N. G.; et al. J. Biol. Chem. Vol. 266(7), 4220-4227, (1991).
The phosphorylated form of the recombinant p38 MAP kinase was expressed with SEK-1 and MEKK in E. Coli and then purified by affinity chromatography using a Nickel column.
The phosphorylated p38 MAP kinase was diluted in kinase buffer (20 mM 3-(N-morpholino)propanesulfonic acid, pH 7.2, 25 mM β-glycerol phosphate, 5 mM ethylene glycol-bis(beta-aminoethyl ether)-N,N,N′,N′-tetraacetic acid, 1 mM sodium vanadate, 1 mM dithiothreitol, 40 mM magnesium chloride). Test compound dissolved in DMSO or only DMSO (control) was added and the samples were incubated for 10 min at 30° C. The kinase reaction was initiated by the addition of a substrate cocktail containing MBP and γ-^33P-ATP. After incubating for an additional 20 min at 30° C., the reaction was terminated by adding 0.75% phosphoric acid. The phosphorylated MBP was then separated from the residual γ-^33P-ATP using a phosphocellulose membrane (Millipore, Bedford, Mass.) and quantitated using a scintillation counter (Packard, Meriden, Conn.).
Compounds of the invention were active in this assay. The p-38 inhibitory activities (expressed as IC50 , the concentration causing 50% inhibition of the p-38 enzyme being assayed) of some compounds of the invention are: […]

T1 sequence (Q16539 whole entry): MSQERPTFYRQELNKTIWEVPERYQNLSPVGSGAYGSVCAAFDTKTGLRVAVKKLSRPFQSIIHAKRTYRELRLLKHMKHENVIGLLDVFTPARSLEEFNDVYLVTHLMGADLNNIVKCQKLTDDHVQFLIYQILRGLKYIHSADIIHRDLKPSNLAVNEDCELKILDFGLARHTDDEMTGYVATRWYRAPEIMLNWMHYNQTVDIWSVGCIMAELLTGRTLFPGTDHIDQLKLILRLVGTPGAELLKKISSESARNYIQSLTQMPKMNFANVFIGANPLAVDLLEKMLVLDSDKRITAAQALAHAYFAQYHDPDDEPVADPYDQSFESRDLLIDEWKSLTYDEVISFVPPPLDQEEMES

pIC50 (p38 MAP kinase)	melting point	SMILES
5.66	235.3 to 237.9 °C	Cl.O=C(O)CN1CCC(CNc2ncc3cc(-c4ccccc4Cl)c(=O)[nH]c3n2)CC1 [Cpd 3]
	220 to 221.1 °C	COC(=O)CN1CCC(CNc2ncc3cc(-c4ccccc4Cl)c(=O)[nH]c3n2)CC1.Cl
	178 to 181.5 °C	C[C@H](Nc1ncc2cc(-c3ccccc3Cl)c(=O)n(C)c2n1)C(C)(C)O (as salt: HCl) [Cpd 8]
	213 to 220 °C	CN1CCC(CNc2ncc3cc(-c4ccccc4Cl)c(=O)[nH]c3n2)CC1.Cl
	206.8 to 207.5 °C	C[C@@H](Nc1ncc2cc(-c3ccccc3Cl)c(=O)n(-c3ccc(F)cc3)c2n1)C(C)(C)O [Cpd 6]
6.91		C[C@H](Nc1ncc2cc(-c3ccccc3Cl)c(=O)n(C3CC3)c2n1)C(C)(C)O [Cpd 12]
7.04	171.2 to 174 °C	Cn1c(=O)c(-c2ccccc2Cl)cc2cnc(N[C@H](CO)C(C)(C)C)nc21 [Cpd 18]
	142.1 to 144.3 °C	CC(Nc1ncc2cc(-c3ccccc3Cl)c(=O)n(C)c2n1)C(C)S(C)(=O)=O.Cl (stereo not shown)
7.32		CC(C)(CO)Nc1ncc2cc(-c3ccccc3Cl)c(=O)n(N)c2n1 [Cpd 13]
	142 to 149 °C	C[C@H](Nc1ncc2cc(-c3ccccc3Cl)c(=O)n(-c3ccc(F)cc3)c2n1)C(C)(C)O (as salt: HCl) [Cpd 7]
7.51		C[C@H](Nc1ncc2cc(-c3ccccc3Cl)c(=O)n(C)c2n1)C(C)(C)O [Cpd 8]
7.38	205.3 to 210.9 °C	Cl.Cn1c(=O)c(-c2ccccc2Cl)cc2cnc(NC3CCC3)nc21 [Cpd 10]
5.20	211.8 to 212.8 °C	CN(C)C(=O)CN1CCC(CNc2ncc3cc(-c4ccccc4Cl)c(=O)[nH]c3n2)CC1.Cl [Cpd 4]
9.52		C[C@H](Nc1ncc2cc(-c3ccccc3Cl)c(=O)n(-c3ccc(F)cc3)c2n1)C(C)(C)O [Cpd 7]
	> 300 °C	C[C@H](Nc1ncc2cc(-c3ccccc3Cl)c(=O)n(N)c2n1)C(C)(O)O.Cl
	194 to 195.3 °C	C[C@H](Nc1ncc2cc(-c3ccccc3Cl)c(=O)n(C)c2n1)C(C)(C)O.Cl
	228.6 to 228.9 °C	Cn1c(=O)c(-c2ccccc2Cl)cc2cnc(NC(C)(C)CO)nc21 (as salt: HCl) [Cpd 1]
7.62	147 to 154 °C	Nn1c(=O)c(-c2ccccc2Cl)cc2cnc(NC3CCCC3)nc21 [Cpd 11]
	156.4 to 160.2 °C	COCCC(C)Nc1ncc2cc(-c3ccccc3Cl)c(=O)n(C)c2n1.Cl (stereo not shown)
7.28		Cn1c(=O)c(-c2ccccc2Cl)cc2cnc(NC(C)(C)CO)nc21 [Cpd 1]
